Source: patent US20240245639A1, “Dermal Application of Retinoic Acid Receptor Agonists for Amelioration of Hypertrophic Scar” (Northwestern University, priority 2023, published 2024)

Columns and labels:
[1] = test system: primary human foreskin fibroblasts; assay: In vitro single-concentration screen of predicted compounds (brightfield, qRT-PCR); assay type: cell-based; details: single concentration, 24 hours, vs vehicle
Description: In order to initially test the identified drugs, we applied each drug or DMSO vehicle control at a single concentration to primary human foreskin fibroblasts in vitro for 24 hours, before harvesting and measuring relative expression of selected myofibroblast marker genes by qRT-PCR. […] None of the drugs tested appeared to affect expression of TGFB1 (the gene encoding transforming growth factor-beta 1) at the examined concentrations.
MATERIALS AND METHODS Materials Emetine dihydrochloride hydrate, homoharringtonine, Ch55 and panobinostat were acquired from Fisher Scientific (Waltham, MA). AZD-7762 was acquired from Selleck Chemicals (Houston, TX). For in vitro work, emetine dihydrochloride hydrate was dissolved in sterile H2O at 50 mM. Homoharringtonine was dissolved in DMSO at 10 mg/mL. Panobinostat was dissolved in DMSO at 425 μM. […] AZD-7762 was dissolved in DMSO at 500 μM. Recombinant human TGF-β1 (Sigma-Aldrich) was dissolved in sterile H2O at 50 µg/mL. All-trans-retinoic acid (Thermo Scientific) was dissolved in DMSO at 10 mM.

[2] = test system: primary human foreskin fibroblasts; assay: Antagonism of fibroblast activation in presence or absence of TGF-β1 (qRT-PCR, Western blot, immunofluorescence); assay type: cell-based; details: 1,000 nM Ch55, presence and absence of TGF-β1, 48 hours
Description: RAR Agonist all-Trans Retinoic Acid Antagonizes Myofibroblast Activation We then wished to see whether another RAR agonist could antagonize myofibroblast activation.
(§1) Cells cultured on glass coverslips were fixed in 4% paraformaldehyde for 30 minutes at room temperature. Cells were blocked in 10% normal goat serum and incubated overnight at 4° C. in solutions of the following primary antibodies: Rabbit monoclonal α-human α-SMA (1:500 dilution, catalog #192455, Cell Signaling Technology, Danvers M A) or mouse α-human COL1A1 (1:1000 dilution, catalog #M-38c, DSHB, Iowa City, IA). The following day, cells were incubated in 1:200 diluted solutions of goat-α-rabbit IgG or donkey-α-mouse IgG Alexafluor 488-conjugated secondary antibodies (A11034 or A21202, Invitrogen) containing Alexafluor 568-conjugated phalloidin (A12380, Invitrogen) for 2 hours in the dark at room temperature, before a 20 minute counterstain in 500 ng/mL DAPI. Coverslips were mounted onto slides in the dark using Fluoro Gel with DABCO (Electron Microscopy Sciences, Hatfield, PA) and imaged on an EVOS-FL imaging system (ThermoFisher).
Harvested scar tissues were incubated in 0.5M ammonium thiocyanate for 20 minutes, followed by mechanical separation of dermis and epidermis using a dissecting microscope. Isolated dermal tissues were minced with a razor blade, submerged in RIPA buffer, and homogenized in the presence of 2 mm zirconia beads using a MagNA Lyser (Roche, Basel, Switzerland). Alternatively, cell culture samples were detached from the culture surface by trypsinization, collected by centrifugation, and lysed in RIPA buffer. Protein concentrations of cell culture and tissue samples were determined using a DC protein assay (BioRad). Five micrograms of total protein were loaded onto polyacrylamide gels and subjected to SDS-PAGE before transfer to nitrocellulose membranes, blocking with 5% dry milk in TBS-T, and probing with target-specific primary antibodies overnight. Species-specific secondary antibody solutions were added to membranes, and chemiluminescent signal was developed with Amersham ECL Western blotting detection reagent using X-ray film.
Primary antibodies used were rabbit anti-α-SMA (1:1000, 19245S, Cell Signaling Technology), rabbit anti-collagen I (1:1000, ab34710, Abcam), mouse anti-collagen I (1:1000, C2456, Sigma-Aldrich), and mouse anti-GAPDH (1:5000, MA5-15738, Invitrogen). Secondary antibodies utilized were HRP goat anti-rabbit IgG(H+L) and horse anti-mouse IgG(H+L) (Vector Laboratories, Newark, CA), both used at 1:5000.

[3] = test system: primary human HTS fibroblasts; assay: Collagen I deposition in hypertrophic scar fibroblasts (Western blot, immunofluorescence); assay type: cell-based; details: HTS fibroblasts, 1,000 nM Ch55, presence and absence of TGF-β1, 48 hours
Description: (§2) Since overproduction of collagen is characteristic of fibroblasts in tissue fibrosis, including hypertrophic scar and keloid, we wished to determine whether Ch55 also affects deposition of collagen I by these fibroblasts.
as §1, with “Coverslips were mounted onto slides in the dark using Fluoro Gel with DABCO (Electron Microscopy Sciences, Hatfield, PA) and imaged on an EVOS-FL imaging system (ThermoFisher).” left out
(§3) Harvested scar tissues were incubated in 0.5M ammonium thiocyanate for 20 minutes, followed by mechanical separation of dermis and epidermis using a dissecting microscope. […] Protein concentrations of cell culture and tissue samples were determined using a DC protein assay (BioRad). […]

[4] = test system: primary human keloid fibroblasts; assay: Collagen I deposition in keloid fibroblasts (Western blot, immunofluorescence); assay type: cell-based; details: keloid fibroblasts, 1,000 nM Ch55, presence and absence of TGF-β1, 48 hours
Description: as §2
as §1, with “Coverslips were mounted onto slides in the dark using Fluoro Gel with DABCO (Electron Microscopy Sciences, Hatfield, PA) and imaged on an EVOS-FL imaging system (ThermoFisher).” left out
as §3

[5] = test system: primary human foreskin fibroblasts; assay: Antagonism of fibroblast activation in presence or absence of TGF-β1 (qRT-PCR, Western blot, immunofluorescence); assay type: cell-based
[6] = test system: cellular retinoic acid binding protein (CRABP); details: cited from earlier work
[7] = 1,000 nM Ch55, ± 10 ng/mL TGF-β1, 24 hour
[8] = 1,000 nM Ch55, ± TGF-β1, 48 hours

CC(C)(C)c1cc(C(=O)/C=C/c2ccc(C(=O)O)cc2)cc(C(C)(C)C)c1 [Ch55]
ACTA2 expression (qRT-PCR) [1]: clear and consistent downregulation | CCN2 expression (qRT-PCR) [1]: clear and consistent downregulation | MMP1 expression (qRT-PCR) [1]: without downregulating | SERPINE1 expression (qRT-PCR) [1]: clear and consistent downregulation | α-SMA protein in filamentous actin stress fibers (immunofluorescence) [2]: loss of α-SMA protein from filamentous actin stress fibers | collagen I deposition (Western blot, immunofluorescence) [3]: dramatic reduction | collagen I deposition (Western blot, immunofluorescence) [4]: dramatic reduction | spread area per cell (brightfield microscopy) ([5]; 1,000 nM Ch55, 48 hours): decreased | deposition of collagen I (immunofluorescence) ([5]; 1,000 nM Ch55, presence and absence of TGF-β1, 48 hours): greatly diminished deposition | basal and TGF-β1-induced expression of ACTA2 (qRT-PCR) [5, 7]: significantly downregulated | basal and TGF-β1-induced expression of CCN2 (qRT-PCR) [5, 7]: significantly downregulated | basal and TGF-β1-induced expression of SERPINE1 (qRT-PCR) [5, 7]: significantly downregulated | collagen deposition as assessed by expression of type I collagen (Western blot) [5, 8]: dramatically antagonized | fibroblast activation as assessed by expression of α-SMA (Western blot) [5, 8]: dramatically antagonized | affinity for CRABP [6]: low affinity
